Test results taken from patent US11180470B2, “Herbicidal pyrimidine compounds” (BASF SE, priority 2016, dated 2021).

Assays:
AMARE = assay: greenhouse experiment, post-emergence treatment; type: in vivo, Amaranthus retroflexus; conditions: post-emergence method, application rate 2000 g/ha, scale from 0 to 100
Description: (§1) The culture containers used were plastic flowerpots containing loamy sand with approximately 3.0% of humus as the substrate. The seeds of the test plants were sown separately for each species.
(§2) For the post-emergence treatment, the test plants were first grown to a height of 3 to 15 cm, depending on the plant habit, and only then treated with the active ingredients which had been suspended or emulsified in water. For this purpose, the test plants were either sown directly and grown in the same containers, or they were first grown separately as seedlings and transplanted into the test containers a few days prior to treatment.
(§3) Depending on the species, the plants were kept at 10-25° C. or 20-35° C., respectively.
(§4) The test period extended over 2 to 4 weeks. During this time, the plants were tended, and their response to the individual treatments was evaluated.
(§5) Evaluation was carried out using a scale from 0 to 100. 100 means no emergence of the plants, or complete destruction of at least the aerial moieties, and 0 means no damage, or normal course of growth. A good herbicidal activity is given at values of at least 70 and a very good herbicidal activity is given at values of at least 85.
(§6) The plants used in the greenhouse experiments were of the following species: […]

ECHCG [1] = assay: greenhouse experiment, post-emergence treatment; type: in vivo, Echinocloa crus-galli; conditions: post-emergence method, application rate 2000 g/ha, scale from 0 to 100
SETVI = assay: greenhouse experiment, post-emergence treatment; type: in vivo, Setaria viridis; conditions: post-emergence method, application rate 2000 g/ha, scale from 0 to 100
Description: as §1, §2, §3, §4, §5, §6

ABUTH = assay: greenhouse experiment, post-emergence treatment; type: in vivo, Abutilon theophrasti; conditions: post-emergence method, application rate 2000 g/ha, scale from 0 to 100
Description: as §1, §2, §3, §4, §5, §6

APESV = assay: greenhouse experiment, pre-emergence treatment; type: in vivo, Apera spica-venti; conditions: pre-emergence method, application rate 2000 g/ha, scale from 0 to 100
AVEFA = assay: greenhouse experiment, post-emergence treatment; type: in vivo, Avena fatua; conditions: post-emergence method, application rate 2000 g/ha, scale from 0 to 100
Method in brief: (§7)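 Herbicidal effect is rated 0–100, where 100 denotes total destruction of aerial parts and 0 denotes unaffected growth. Treatment occurs once plants reach 3–15 cm in humus-containing loamy sand, with compound applied in water; the trial runs 2–4 weeks at 10–25 °C or 20–35 °C.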

ALOMY = assay: greenhouse experiment, post-emergence treatment; type: in vivo, Alopecurus myosuroides; conditions: post-emergence method, application rate 2000 g/ha, scale from 0 to 100
Method in brief: as §7

ECHCG [2] = assay: greenhouse experiment, pre-emergence treatment; type: in vivo, Echinocloa crus-galli; conditions: pre-emergence method, application rate 2000 g/ha, scale from 0 to 100

Structure (SMILES)	herbicidal activity against AMARE (AMARE)	herbicidal activity against ECHCG (ECHCG [1])	herbicidal activity against SETVI (SETVI)	herbicidal activity against ABUTH (ABUTH)	herbicidal activity against APESV (APESV)	herbicidal activity against AVEFA (AVEFA)	herbicidal activity against ALOMY (ALOMY)	herbicidal activity against ECHCG (ECHCG [2])
COC(=O)c1nc(C2CC2)ncc1-c1ncccc1F [Example 19]	very good (a very good herbicidal activity is given at values of at least 85)	very good (a very good herbicidal activity is given at values of at least 85)	very good (a very good herbicidal activity is given at values of at least 85)					
COC(=O)c1nc(C2CC2)ncc1-c1ncc(F)cc1F [Example 31]			very good (a very good herbicidal activity is given at values of at least 85)	good (A good herbicidal activity is given at values of at least 70)	very good (a very good herbicidal activity is given at values of at least 85)			
COC(=O)c1nc(C2CC2)ncc1-c1ccncc1F [Example 33]	very good (a very good herbicidal activity is given at values of at least 85)		very good (a very good herbicidal activity is given at values of at least 85)		good (A good herbicidal activity is given at values of at least 70)	very good (a very good herbicidal activity is given at values of at least 85)		
COC(=O)c1nc(C2CC2)ncc1-c1nc(C(F)(F)F)ccc1F [Example 61]			very good (a very good herbicidal activity is given at values of at least 85)		good (A good herbicidal activity is given at values of at least 70)	very good (a very good herbicidal activity is given at values of at least 85)	very good (a very good herbicidal activity is given at values of at least 85)	very good (a very good herbicidal activity is given at values of at least 85)
COC(=O)c1nc(C2CC2)ncc1-c1cc(C(F)(F)F)ncc1Cl [Example 63]			very good (a very good herbicidal activity is given at values of at least 85)	very good (a very good herbicidal activity is given at values of at least 85)	very good (a very good herbicidal activity is given at values of at least 85)		very good (a very good herbicidal activity is given at values of at least 85)	very good (a very good herbicidal activity is given at values of at least 85)
